Source: patent US7687664B2, “Carboxylic acid derivative, a salt thereof or an ester of them, and medicament comprising it” (Eisai R&D Management Co., Ltd., priority 2001, dated 2010)

Columns and labels:
Test in all cases: Transcriptional activity, GAL4-PPAR LBD chimera / PLAP reporter in CV-1 cells
Type in all cases: cell-based
[1] = molecular target: T1, human PPAR β (NUC-1, PPARβ(δ)) (Homo sapiens, UniProt Q03181); conditions: GAL4-PPARβ(δ) (NUC-1) LBD, PLAP activity 24 hours after addition
T1 construct: 138-440 (NUC-1); expressed in transfected cells; host or cells: CV-1 (ATCC CCL-70)
T1 sequence (Q03181 138-440): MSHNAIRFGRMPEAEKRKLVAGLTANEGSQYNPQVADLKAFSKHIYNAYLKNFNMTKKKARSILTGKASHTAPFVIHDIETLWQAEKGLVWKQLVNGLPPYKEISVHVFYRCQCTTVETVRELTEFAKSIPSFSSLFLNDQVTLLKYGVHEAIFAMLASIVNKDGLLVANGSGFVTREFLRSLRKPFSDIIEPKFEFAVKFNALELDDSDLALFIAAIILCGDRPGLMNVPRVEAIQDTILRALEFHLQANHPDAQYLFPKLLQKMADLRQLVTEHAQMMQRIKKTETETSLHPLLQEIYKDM
Source text: (§1) A GAL4-PPAR LBD chimera expression vector was constructed by ligating human PPAR 167-468 (PPAR α), 138-440 (NUC-1) and 174-475 (PPARγ) amino acid regions (LBD: Ligand Binding Domain) to a yeast transcriptional factor GAL4 1-147 amino acid region. As the reporter gene, PLAP (Placental Alkaline Phosphatase) was used, and this was ligated downstream of a TK promoter containing a 5-copy GAL4 DNA binding element to construct a vector. As host cells, CV-1 (ATCC CCL-70) was used. That is, CV-1 cells were spread at a density of 5×10^5 cells on a 35-mm dish and cultured in 10% FCS/DMEM for 24 hours, and using FuGENE 6 transfection reagent, the cells were co-transfected with the GAL4-PPAR LBD expression vector and GAL4 DBD-TK-PLAP expression vector. 24 hours after this transfection, the cells were spread again on a 96-well plate at a density of 1×10^4/well and further cultured for 24 hours. After 24 hours, the medium was exchanged with DMEM containing 10% FCS, which was previously treated at 65° C. for inactivating intrinsic alkaline phosphatase, and a test compound was added at an arbitrary concentration. The transcriptional activity was determined in terms of PLAP activity secreted 24 hours after addition of the compound, to calculate EC50.
(§2) The PLAP activity was determined after adding 50 μl assay buffer and 50 μl chemoluminescence substrate to 10 μl culture supernatant and incubating the mixture at room temperature for 1 hour. In this way, transcription activities with respect to PPARα, PPARβ(δ) and PPARγ could be determined.

[2] = molecular target: T2, human PPAR α (Homo sapiens, UniProt Q07869); conditions: GAL4-PPARα LBD, PLAP activity 24 hours after addition
T2 construct: human PPAR 167-468 (PPAR α); expressed in transfected cells; host or cells: CV-1 (ATCC CCL-70)
T2 sequence (Q07869 167-468): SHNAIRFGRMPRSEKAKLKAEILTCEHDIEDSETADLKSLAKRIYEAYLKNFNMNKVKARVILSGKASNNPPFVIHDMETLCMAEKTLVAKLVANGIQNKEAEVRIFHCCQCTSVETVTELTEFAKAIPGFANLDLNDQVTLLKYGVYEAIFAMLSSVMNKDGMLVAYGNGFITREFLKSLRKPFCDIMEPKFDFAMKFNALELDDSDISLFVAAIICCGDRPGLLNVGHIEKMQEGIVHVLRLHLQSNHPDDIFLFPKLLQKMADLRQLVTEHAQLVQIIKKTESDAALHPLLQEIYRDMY
Source text: as §1, §2

[3] = molecular target: T3, human PPAR γ (Homo sapiens, UniProt P37231); conditions: GAL4-PPARγ LBD, PLAP activity 24 hours after addition
T3 construct: 174-475 (PPARγ); expressed in transfected cells; host or cells: CV-1 (ATCC CCL-70)
T3 sequence (P37231 174-475 isoform P37231-2): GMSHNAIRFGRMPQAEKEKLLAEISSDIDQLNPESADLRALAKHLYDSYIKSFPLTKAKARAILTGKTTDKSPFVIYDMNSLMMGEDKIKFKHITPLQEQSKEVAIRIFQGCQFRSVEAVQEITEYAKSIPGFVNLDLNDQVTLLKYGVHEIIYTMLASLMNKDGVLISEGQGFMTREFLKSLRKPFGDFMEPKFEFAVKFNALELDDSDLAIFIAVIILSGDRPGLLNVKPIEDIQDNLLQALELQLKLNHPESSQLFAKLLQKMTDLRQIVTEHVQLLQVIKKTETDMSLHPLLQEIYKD
Source text: as §1, §2

Row | Compound | EC50 [1] [nM] | EC50 [2] [nM] | EC50 [3] [nM]
1 | COc1ccc(-c2ccc(C)c(C(=O)O)c2)cc1CNC(=O)c1ccc(Cl)cc1Cl [Example 21, 3-(3-{[(2,4-Dichlorobenzoyl)amino]methyl}-4-methoxyphenyl)-6-methylbenzoic Acid] | 116 | 45 | 43
2 | COc1ccc(-c2cccc(CC(=O)O)c2)cc1CNC(=O)c1ccc(C(F)(F)F)cc1F [Example 220, 3-(3-{[(4-Trifluoromethyl-2-fluorobenzoyl)amino]methyl}-4-methoxyphenyl)-3-phenylacetic Acid] | 0.5 | 750 | 58
3 | COc1ccc(-c2cccc(CC(=O)O)c2)cc1C#CCOc1ccc(C(F)(F)F)cc1 [Example 351, {4′-Methoxy-3′-[3-(4-trifluoromethylphenoxy)1-propynyl]biphenyl-3-yl}acetic Acid] | 160 | 1820 | 1410
4 | COc1ccc(-c2cccc(CC(=O)O)c2)cc1OCC#Cc1cccc(C(F)(F)F)c1 [Ex 375, {3′-[3-(3-Trifluoromethylphenyl)-2-propynyloxy]-4′-methoxybiphenyl-3-yl}acetic Acid] | 102 | 653 | 1280
5 | COc1ccc(-c2cccc(CC(=O)O)c2)cc1CCOC(=O)Nc1ccc(C(F)(F)F)cc1 [Example 267, 2-[5-(3-{2-[(4-Trifluoromethylanilinocarbonyl)oxy]ethyl}-4-methoxyphenyl)-3-phenyl]acetic Acid] | 18 | 622 | 468
6 | COc1ccc(-c2cccc(CC(=O)O)c2)cc1CCOc1ccc(Cl)cc1Cl [Example 263, 3-{3-[2-(2,4-Dichlorophenoxy)ethyl]-4-methoxyphenyl}phenylacetic Acid] | 0.48 |  | 1160
7 | COc1ccc(-c2cccc(CC(=O)O)c2)cc1OCC(O)COc1ccc(C(C)(C)C)cc1 (stereo not shown) [Ex 365, {3′-[2-Hydroxy-3-(4-t-butylphenoxy)propoxy]-4′-methoxybiphenyl-3-yl}acetic Acid] | 1140 | 1560 | 150
8 | CCCOc1ccc(C(=O)NCc2cc(-c3cccc(/C=C(\CC)C(=O)O)c3)ccc2OC)c(Cl)c1 [Example 141, (E)-2-Ethyl-3-[3-(3-{[(4-propoxy-2-chlorobenzoyl)amino]methyl}-4-methoxyphenyl)phenyl]-2-propenoic Acid] |  |  | 31
9 | CCCOc1ccc(-c2cc(C(=O)O)ccc2Cl)cc1CNC(=O)c1ccc(C(F)(F)F)cc1F [Example 199, 3-(3-{[(4-Trifluoromethyl-2-fluorobenzoyl)amino]methyl}-4-propoxyphenyl)-4-chlorobenzoic Acid] | 0.35 | 538 | 136
10 | Cc1ccc(-c2ccccc2CNC(=O)c2sc(-c3ccc(Cl)cc3)nc2C)cc1C(=O)O [Example 257, 3-(2-[([2-(4-Chlorophenyl)-4-methyl-1,3-thiazol-5-yl]carbonylamino)methyl]phenyl)-6-methylbenzoic Acid] |  | 29 | 
11 | COc1ccc(-c2cccc(CC(=O)O)c2)cc1/C(C)=N/OCc1ccc(C(F)(F)F)cc1 [Example 361, {4′-Methoxy-3′-[1-(4-trifluoromethylbenzyloxyimino)ethyl]-biphenyl-3-yl}acetic Acid] | < 0.1 | 719 | 654
12 | CCOc1ccc(-c2cccc(CC(=O)O)c2)cc1CNC(=O)OCc1ccc(CC)cc1 [Example 302, {4′-Ethoxy-3′-[(4-ethylbenzyloxycarbonylamino)methyl]-biphenyl-3-yl}acetic Acid] | 74 | 3 | 700
